According to publication PMC8550792, “Evolution of kinase polypharmacology across HSP90 drug discovery” (Cell Chemical Biology, 2021):

What was measured:
Test in all cases: biochemical
Format in all cases: biochemical
382 unique human kinases [1] = target: T1, 382 unique human kinases (Homo sapiens, UniProt P00533, L861Q); settings: kinase EGFR (L861Q), compound 10 uM; for remaining activity at 10 µM: read-out: % Enzyme Activity (relative to DMSO controls)
T1 construct: purchased Reaction Biology (HotSpot contract assay)

382 unique human kinases [2] = target: T2, 382 unique human kinases (Homo sapiens, UniProt P07949, S904F); settings: RET (S904F), 10 uM; for remaining activity at 10 µM: read-out: % Enzyme Activity (relative to DMSO controls)
T2 construct: purchased Reaction Biology (HotSpot contract assay)
T2 sequence (P07949 29-1114 S904F): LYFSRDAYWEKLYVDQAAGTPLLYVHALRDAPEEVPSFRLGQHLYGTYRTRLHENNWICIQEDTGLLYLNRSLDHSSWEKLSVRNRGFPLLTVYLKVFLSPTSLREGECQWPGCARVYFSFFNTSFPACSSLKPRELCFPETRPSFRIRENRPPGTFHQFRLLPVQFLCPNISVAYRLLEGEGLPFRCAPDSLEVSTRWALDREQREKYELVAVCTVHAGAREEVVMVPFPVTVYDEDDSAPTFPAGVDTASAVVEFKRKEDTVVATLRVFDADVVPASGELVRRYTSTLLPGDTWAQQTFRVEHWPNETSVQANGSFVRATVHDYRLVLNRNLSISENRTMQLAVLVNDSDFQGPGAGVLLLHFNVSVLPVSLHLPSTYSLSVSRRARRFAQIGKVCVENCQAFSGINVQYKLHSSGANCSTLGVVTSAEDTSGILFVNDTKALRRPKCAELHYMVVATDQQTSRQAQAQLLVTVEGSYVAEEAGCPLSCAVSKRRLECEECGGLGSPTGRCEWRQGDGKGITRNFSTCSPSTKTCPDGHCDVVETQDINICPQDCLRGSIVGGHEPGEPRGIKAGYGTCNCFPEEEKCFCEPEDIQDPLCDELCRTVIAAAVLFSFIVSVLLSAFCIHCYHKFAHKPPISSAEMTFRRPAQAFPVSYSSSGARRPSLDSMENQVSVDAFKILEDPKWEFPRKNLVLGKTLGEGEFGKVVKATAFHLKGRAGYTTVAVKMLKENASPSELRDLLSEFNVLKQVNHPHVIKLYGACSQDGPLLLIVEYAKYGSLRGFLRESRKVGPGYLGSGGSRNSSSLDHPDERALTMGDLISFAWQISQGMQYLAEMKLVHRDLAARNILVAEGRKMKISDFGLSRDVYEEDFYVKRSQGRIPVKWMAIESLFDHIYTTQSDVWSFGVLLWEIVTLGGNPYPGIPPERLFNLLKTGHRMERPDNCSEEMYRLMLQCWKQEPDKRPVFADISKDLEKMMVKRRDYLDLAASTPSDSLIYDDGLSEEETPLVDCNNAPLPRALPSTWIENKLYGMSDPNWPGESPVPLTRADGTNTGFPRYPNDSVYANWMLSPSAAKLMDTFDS

382 unique human kinases [3] = target: T3, 382 unique human kinases (Homo sapiens, UniProt P08922); settings: ROS/ROS1, 10 uM; for remaining activity at 10 µM: read-out: % Enzyme Activity (relative to DMSO controls)
T3 construct: purchased Reaction Biology (HotSpot contract assay)

382 unique human kinases [4] = target: T4, 382 unique human kinases (Homo sapiens, UniProt Q02763, Y897C); settings: kinase TIE2 (Y897C), compound 10 uM; for remaining activity at 10 µM: read-out: % Enzyme Activity (relative to DMSO controls)
T4 construct: purchased Reaction Biology (HotSpot contract assay)

382 unique human kinases [5] = target: T5, 382 unique human kinases (Homo sapiens, UniProt P00533, DEL746-750/T790M); settings: EGFR (d746-750/T790M), 10 uM; for remaining activity at 10 µM: read-out: % Enzyme Activity (relative to DMSO controls)
T5 construct: purchased Reaction Biology (HotSpot contract assay)

382 unique human kinases [6] = target: T6, 382 unique human kinases (Homo sapiens, UniProt P04629); settings: TRKA, [ATP] 100 µM, compound 10 uM; for remaining activity at 10 µM: read-out: % Enzyme Activity (relative to DMSO controls)
T6 construct: purchased Reaction Biology (HotSpot contract assay)
T6 sequence (P04629 33-796): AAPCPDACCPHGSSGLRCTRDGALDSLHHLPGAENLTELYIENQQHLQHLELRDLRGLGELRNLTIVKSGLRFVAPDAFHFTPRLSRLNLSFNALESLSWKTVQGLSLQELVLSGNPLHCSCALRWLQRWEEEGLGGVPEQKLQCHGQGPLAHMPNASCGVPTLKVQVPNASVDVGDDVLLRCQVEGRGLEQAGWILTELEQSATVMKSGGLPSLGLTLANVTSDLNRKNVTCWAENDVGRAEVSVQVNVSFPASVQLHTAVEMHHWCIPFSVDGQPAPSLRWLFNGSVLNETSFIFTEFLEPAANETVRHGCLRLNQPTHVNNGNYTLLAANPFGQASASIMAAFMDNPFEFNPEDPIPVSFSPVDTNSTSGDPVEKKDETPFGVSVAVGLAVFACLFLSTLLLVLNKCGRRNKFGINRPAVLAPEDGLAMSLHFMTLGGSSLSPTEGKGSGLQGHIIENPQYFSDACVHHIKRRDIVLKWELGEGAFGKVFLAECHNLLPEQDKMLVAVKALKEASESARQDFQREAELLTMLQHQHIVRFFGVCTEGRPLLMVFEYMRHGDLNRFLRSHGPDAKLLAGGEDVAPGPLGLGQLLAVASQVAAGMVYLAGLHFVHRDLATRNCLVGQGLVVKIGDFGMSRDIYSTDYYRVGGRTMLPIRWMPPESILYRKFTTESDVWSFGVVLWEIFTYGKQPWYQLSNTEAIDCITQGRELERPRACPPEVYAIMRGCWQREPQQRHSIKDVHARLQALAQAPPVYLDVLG

382 unique human kinases [7] = target: T7, 382 unique human kinases (Homo sapiens, UniProt P06241); settings: FYN, [ATP] 30 µM
T7 construct: purchased Reaction Biology (HotSpot contract assay)
T7 sequence (P06241 whole entry): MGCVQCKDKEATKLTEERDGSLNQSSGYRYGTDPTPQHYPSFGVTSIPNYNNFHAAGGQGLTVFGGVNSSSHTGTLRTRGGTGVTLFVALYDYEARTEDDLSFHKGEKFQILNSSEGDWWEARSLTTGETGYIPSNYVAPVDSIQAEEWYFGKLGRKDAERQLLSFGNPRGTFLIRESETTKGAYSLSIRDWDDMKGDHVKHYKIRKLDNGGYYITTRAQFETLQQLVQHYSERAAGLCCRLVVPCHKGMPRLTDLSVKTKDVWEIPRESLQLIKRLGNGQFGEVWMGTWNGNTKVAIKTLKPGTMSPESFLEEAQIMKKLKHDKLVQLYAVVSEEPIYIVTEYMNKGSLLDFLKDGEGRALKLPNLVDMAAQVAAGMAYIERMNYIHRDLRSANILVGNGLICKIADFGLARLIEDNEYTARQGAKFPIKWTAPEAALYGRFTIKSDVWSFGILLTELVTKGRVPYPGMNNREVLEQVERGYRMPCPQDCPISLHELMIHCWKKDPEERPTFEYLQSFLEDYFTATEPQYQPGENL

382 unique human kinases [8] = target: T8, 382 unique human kinases (Homo sapiens, UniProt P09769); settings: FGR, [ATP] 50 µM
T8 construct: purchased Reaction Biology (HotSpot contract assay)
T8 sequence (P09769 whole entry): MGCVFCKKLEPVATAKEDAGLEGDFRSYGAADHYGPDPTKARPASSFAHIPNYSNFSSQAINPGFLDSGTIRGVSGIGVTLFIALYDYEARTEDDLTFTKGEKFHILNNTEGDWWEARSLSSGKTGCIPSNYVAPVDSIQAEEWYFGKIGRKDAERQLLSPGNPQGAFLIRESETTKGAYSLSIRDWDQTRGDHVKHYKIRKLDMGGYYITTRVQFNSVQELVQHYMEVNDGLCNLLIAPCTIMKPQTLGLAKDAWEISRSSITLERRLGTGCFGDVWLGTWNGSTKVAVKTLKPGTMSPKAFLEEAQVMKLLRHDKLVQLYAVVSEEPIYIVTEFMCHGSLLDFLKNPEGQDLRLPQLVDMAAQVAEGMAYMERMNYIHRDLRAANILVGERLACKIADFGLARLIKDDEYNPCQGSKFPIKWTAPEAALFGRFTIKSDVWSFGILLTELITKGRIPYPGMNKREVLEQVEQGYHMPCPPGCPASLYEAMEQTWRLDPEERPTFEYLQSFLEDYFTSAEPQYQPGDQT

382 unique human kinases [9] = target: T9, 382 unique human kinases (Homo sapiens, UniProt P15056); settings: BRAF, 10 uM; for remaining activity at 10 µM: read-out: % Enzyme Activity (relative to DMSO controls)
T9 construct: purchased Reaction Biology (HotSpot contract assay)

382 unique human kinases [10] = target: T10, 382 unique human kinases (Homo sapiens, UniProt P54762); settings: EPHB1, [ATP] 100 µM, compound 10 uM; for remaining activity at 10 µM: read-out: % Enzyme Activity (relative to DMSO controls)
T10 construct: purchased Reaction Biology (HotSpot contract assay)
T10 sequence (P54762 18-984): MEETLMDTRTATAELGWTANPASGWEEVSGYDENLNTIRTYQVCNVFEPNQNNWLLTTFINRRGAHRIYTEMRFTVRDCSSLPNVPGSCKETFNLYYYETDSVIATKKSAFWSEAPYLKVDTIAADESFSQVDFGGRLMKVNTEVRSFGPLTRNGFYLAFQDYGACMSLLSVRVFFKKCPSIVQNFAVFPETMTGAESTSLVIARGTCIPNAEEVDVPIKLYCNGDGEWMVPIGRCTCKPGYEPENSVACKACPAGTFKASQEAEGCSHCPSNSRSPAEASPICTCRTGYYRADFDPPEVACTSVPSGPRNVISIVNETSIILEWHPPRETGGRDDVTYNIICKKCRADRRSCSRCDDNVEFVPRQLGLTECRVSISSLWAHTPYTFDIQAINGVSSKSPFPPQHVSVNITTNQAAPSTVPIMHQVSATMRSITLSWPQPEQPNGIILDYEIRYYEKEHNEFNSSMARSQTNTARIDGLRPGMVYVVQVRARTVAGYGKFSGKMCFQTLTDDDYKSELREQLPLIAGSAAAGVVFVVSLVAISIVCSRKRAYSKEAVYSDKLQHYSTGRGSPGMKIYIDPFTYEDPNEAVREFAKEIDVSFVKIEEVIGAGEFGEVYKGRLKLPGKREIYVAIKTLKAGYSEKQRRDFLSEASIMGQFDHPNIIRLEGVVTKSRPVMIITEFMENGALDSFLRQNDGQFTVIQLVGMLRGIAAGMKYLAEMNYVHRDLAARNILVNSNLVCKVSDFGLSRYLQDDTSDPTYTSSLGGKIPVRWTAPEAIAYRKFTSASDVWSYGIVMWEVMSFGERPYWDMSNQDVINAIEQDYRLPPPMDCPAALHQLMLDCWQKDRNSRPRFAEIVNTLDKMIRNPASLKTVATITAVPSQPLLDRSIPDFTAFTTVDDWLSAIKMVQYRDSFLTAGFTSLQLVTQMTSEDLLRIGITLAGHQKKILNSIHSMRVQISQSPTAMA

382 unique human kinases [11] = target: T11, 382 unique human kinases (Homo sapiens, UniProt P54764); settings: EPHA4, [ATP] 30 µM, compound 10 uM; for remaining activity at 10 µM: read-out: % Enzyme Activity (relative to DMSO controls)
T11 construct: purchased Reaction Biology (HotSpot contract assay)
T11 sequence (P54764 20-986): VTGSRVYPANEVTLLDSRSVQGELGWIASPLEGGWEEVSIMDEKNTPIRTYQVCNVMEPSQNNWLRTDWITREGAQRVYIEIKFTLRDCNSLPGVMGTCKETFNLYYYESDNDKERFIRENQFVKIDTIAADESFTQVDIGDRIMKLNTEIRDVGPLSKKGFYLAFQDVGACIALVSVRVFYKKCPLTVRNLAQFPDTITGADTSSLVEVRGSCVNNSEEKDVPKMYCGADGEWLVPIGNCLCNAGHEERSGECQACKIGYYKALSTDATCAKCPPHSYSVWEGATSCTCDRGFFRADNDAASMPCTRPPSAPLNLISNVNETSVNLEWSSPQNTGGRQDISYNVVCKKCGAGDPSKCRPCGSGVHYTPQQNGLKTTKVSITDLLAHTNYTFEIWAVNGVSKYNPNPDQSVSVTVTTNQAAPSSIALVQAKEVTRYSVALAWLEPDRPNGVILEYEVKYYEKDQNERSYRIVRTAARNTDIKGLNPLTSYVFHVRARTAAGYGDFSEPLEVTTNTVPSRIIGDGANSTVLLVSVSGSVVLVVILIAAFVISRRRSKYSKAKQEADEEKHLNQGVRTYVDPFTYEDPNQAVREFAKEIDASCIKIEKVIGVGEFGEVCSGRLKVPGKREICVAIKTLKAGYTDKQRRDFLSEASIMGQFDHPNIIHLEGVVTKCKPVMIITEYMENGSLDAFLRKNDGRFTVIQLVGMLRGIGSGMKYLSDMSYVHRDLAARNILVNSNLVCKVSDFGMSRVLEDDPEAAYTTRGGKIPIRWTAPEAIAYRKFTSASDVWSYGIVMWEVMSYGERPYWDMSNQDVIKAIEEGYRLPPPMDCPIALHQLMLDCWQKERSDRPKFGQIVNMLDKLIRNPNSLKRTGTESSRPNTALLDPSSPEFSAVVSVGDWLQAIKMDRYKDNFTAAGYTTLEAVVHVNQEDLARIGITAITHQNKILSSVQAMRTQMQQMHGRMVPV

382 unique human kinases [12] = target: T12, 382 unique human kinases (Homo sapiens, UniProt Q15349); settings: RSK3, 10 uM; for remaining activity at 10 µM: read-out: % Enzyme Activity (relative to DMSO controls)
T12 construct: purchased Reaction Biology (HotSpot contract assay)
T12 sequence (Q15349 whole entry): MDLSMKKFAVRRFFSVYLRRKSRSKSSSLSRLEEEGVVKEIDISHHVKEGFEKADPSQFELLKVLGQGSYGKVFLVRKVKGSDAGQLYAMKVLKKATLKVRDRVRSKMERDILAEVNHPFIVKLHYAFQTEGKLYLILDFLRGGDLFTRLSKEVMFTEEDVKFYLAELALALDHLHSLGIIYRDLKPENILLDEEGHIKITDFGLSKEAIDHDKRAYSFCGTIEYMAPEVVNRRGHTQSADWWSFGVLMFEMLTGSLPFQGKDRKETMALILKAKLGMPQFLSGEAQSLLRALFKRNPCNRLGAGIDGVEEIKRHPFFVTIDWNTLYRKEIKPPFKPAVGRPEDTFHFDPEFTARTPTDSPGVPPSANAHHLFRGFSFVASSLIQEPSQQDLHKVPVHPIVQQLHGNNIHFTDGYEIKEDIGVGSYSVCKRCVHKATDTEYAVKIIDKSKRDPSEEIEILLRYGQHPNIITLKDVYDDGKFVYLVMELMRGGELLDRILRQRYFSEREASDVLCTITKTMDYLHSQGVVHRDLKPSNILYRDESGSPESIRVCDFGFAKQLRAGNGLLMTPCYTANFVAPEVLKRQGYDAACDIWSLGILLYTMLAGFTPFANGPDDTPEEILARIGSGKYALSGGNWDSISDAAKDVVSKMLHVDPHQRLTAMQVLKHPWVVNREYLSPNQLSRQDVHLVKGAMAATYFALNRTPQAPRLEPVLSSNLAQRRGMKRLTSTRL

382 unique human kinases [13] = target: T13, 382 unique human kinases (Homo sapiens, UniProt Q9H093); settings: SNARK/NUAK2, 10 uM; for remaining activity at 10 µM: read-out: % Enzyme Activity (relative to DMSO controls)
T13 construct: purchased Reaction Biology (HotSpot contract assay)
T13 sequence (Q9H093 1-628): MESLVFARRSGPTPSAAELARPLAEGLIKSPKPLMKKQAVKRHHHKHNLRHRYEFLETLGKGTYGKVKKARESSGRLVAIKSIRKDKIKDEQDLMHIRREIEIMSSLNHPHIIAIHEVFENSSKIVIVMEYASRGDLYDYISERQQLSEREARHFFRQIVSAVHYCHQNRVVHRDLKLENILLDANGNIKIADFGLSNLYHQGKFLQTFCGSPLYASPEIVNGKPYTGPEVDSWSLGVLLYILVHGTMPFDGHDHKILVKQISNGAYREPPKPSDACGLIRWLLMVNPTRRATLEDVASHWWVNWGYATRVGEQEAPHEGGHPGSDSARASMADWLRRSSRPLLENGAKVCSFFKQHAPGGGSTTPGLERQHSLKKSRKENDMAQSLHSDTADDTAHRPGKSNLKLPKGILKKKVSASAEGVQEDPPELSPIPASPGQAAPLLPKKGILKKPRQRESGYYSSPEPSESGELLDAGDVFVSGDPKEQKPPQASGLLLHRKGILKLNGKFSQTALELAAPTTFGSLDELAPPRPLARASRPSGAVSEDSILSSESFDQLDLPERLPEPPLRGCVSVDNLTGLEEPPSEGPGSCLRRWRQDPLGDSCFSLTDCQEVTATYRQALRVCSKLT

[14] = compound 1 uM, read-out: % Enzyme Activity (relative to DMSO controls)
[15] = compound 10 uM, read-out: % Enzyme Activity (relative to DMSO controls)

CC(C)c1cc(-c2n[nH]c(=O)n2-c2ccc3c(ccn3C)c2)c(O)cc1O [Ganetespib (STA9090)]
remaining activity at 10 µM (382 unique human kinases [1]): 90.9% | remaining activity at 10 µM (382 unique human kinases [2]): 61.6% | remaining activity at 10 µM (382 unique human kinases [3]): 70.2% | remaining activity at 10 µM (382 unique human kinases [4]): 88%

CC(C)c1cc(-c2n[nH]c(=O)n2-c2ccc3c(ccn3C)c2)c(O)cc1O [Ganetespib]
remaining activity at 10 µM (382 unique human kinases [5]): 118% | remaining activity at 10 µM (382 unique human kinases [6]): 52.8% | remaining activity at 1 µM (382 unique human kinases [7]; [14]): 47.6% | remaining activity at 1 µM (382 unique human kinases [8]; [14]): 47.5% | remaining activity at 10 µM (382 unique human kinases [8]; [15]): 14.4% | remaining activity at 10 µM (382 unique human kinases [9]): 98.1% | remaining activity at 10 µM (382 unique human kinases [10]): 36% | remaining activity at 10 µM (382 unique human kinases [11]): 49% | remaining activity at 10 µM (382 unique human kinases [12]): 119% | remaining activity at 10 µM (382 unique human kinases [13]): 100%

CCNC(=O)c1noc(-c2cc(C(C)C)c(O)cc2O)c1-c1ccc(CN2CCOCC2)cc1 [Luminespib (AUY-922)]
% Enzyme Activity (relative to DMSO controls) (382 unique human kinases [1]): 100.91% | remaining activity at 10 µM (382 unique human kinases [1]): 104% | % Enzyme Activity (relative to DMSO controls) (382 unique human kinases [2]): 101.49% | remaining activity at 10 µM (382 unique human kinases [2]): 102% | % Enzyme Activity (relative to DMSO controls) (382 unique human kinases [3]): 89.10% | remaining activity at 10 µM (382 unique human kinases [3]): 90.8% | % Enzyme Activity (relative to DMSO controls) (382 unique human kinases [4]): 99.30% | remaining activity at 10 µM (382 unique human kinases [4]): 100%

CCNC(=O)c1noc(-c2cc(C(C)C)c(O)cc2O)c1-c1ccc(CN2CCOCC2)cc1 [Luminespib]
% Enzyme Activity (relative to DMSO controls) (382 unique human kinases [5]): 99.12% | remaining activity at 10 µM (382 unique human kinases [5]): 100% | % Enzyme Activity (relative to DMSO controls) (382 unique human kinases [6]): 101.35% | remaining activity at 10 µM (382 unique human kinases [6]): 101% | % Enzyme Activity (relative to DMSO controls) (382 unique human kinases [7]; compound 10 uM): 65.29% | remaining activity at 10 µM (382 unique human kinases [7]; [15]): 65.6% | % Enzyme Activity (relative to DMSO controls) (382 unique human kinases [8]; compound 10 uM): 33.14% | remaining activity at 10 µM (382 unique human kinases [8]; [15]): 34.1% | % Enzyme Activity (relative to DMSO controls) (382 unique human kinases [9]): 103.97% | remaining activity at 10 µM (382 unique human kinases [9]): 105% | % Enzyme Activity (relative to DMSO controls) (382 unique human kinases [10]): 90.73% | remaining activity at 10 µM (382 unique human kinases [10]): 92.3% | % Enzyme Activity (relative to DMSO controls) (382 unique human kinases [11]): 90.78% | remaining activity at 10 µM (382 unique human kinases [11]): 91.1% | % Enzyme Activity (relative to DMSO controls) (382 unique human kinases [12]): 94.51% | remaining activity at 10 µM (382 unique human kinases [12]): 95.2% | % Enzyme Activity (relative to DMSO controls) (382 unique human kinases [13]): 96.83% | remaining activity at 10 µM (382 unique human kinases [13]): 98.6%
